Test results reported in ChEMBL document CHEMBL1124323, “Phenolic metabolites of clomiphene: [(E,Z)-2-[4-(1,2-diphenyl-2-chlorovinyl)phenoxy]ethyl]diethylamine. Preparation, electrophilicity, and effects in MCF 7 breast cancer cells” (J Med Chem, 1989).

Tests used:
MCF7S [1] = test: cells; details: Homo sapiens
Estrogen receptor [2] = target: T1, Estrogen receptor (Homo sapiens, UniProt Q92731+P03372); test: Displacement of [3H]-estradiol from estrogen receptor (ER); format: protein assay
MCF7S [3] = test: Inhibition of MCF-7 cell proliferation at 5 uM; format: functional; details: Homo sapiens
[4] = target: T2, Anti-estrogen binding site (AEBS) (Homo sapiens, UniProt Q15125+Q9UBM7); test: Relative binding affinity for antiestrogen binding site compared to tamoxifen; format: protein-complex assay
T2 sequence (Q15125 whole entry): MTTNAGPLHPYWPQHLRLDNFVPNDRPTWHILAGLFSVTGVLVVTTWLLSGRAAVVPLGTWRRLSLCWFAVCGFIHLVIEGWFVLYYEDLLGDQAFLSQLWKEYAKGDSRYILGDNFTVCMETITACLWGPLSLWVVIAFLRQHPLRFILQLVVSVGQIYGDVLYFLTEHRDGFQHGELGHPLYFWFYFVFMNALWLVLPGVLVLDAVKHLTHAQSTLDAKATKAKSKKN
T2 sequence (Q9UBM7 whole entry): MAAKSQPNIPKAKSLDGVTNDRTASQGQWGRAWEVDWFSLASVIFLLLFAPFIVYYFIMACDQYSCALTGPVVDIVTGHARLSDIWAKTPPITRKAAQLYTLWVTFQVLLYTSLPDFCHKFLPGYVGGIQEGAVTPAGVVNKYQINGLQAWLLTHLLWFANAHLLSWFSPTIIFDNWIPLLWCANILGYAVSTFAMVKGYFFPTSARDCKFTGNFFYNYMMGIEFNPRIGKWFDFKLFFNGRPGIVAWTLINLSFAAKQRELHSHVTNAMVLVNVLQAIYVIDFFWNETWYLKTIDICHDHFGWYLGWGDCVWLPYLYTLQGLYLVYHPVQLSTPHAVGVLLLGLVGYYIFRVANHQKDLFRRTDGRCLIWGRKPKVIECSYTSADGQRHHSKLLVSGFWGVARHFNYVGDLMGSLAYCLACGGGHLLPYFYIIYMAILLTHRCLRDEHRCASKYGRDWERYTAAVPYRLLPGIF

[5] = target: T2, Anti-estrogen binding site (AEBS); test: Displacement of [3H]tamoxifen from antiestrogen binding site (AEBS); format: protein-complex assay
Estrogen receptor [6] = target: T1, Estrogen receptor; test: Relative binding affinity for estrogen receptor compared to estradiol; format: protein assay

| Compound | inhibition at 5 µM (MCF7S [1]) | IC50 (Estrogen receptor [2]) | inhibition at 5 µM (MCF7S [3]) | Ratio [4] | IC50 [5] | Ratio (Estrogen receptor [6]) |
| --- | --- | --- | --- | --- | --- | --- |
| CCN(CC)CCOc1ccc(/C(=C(/Cl)c2ccc(O)cc2)c2ccccc2)cc1 | 57% | – | – | – | – | – |
| CCN(CC)CCOc1ccc(/C(=C(/Cl)c2ccc(O)c(OC)c2)c2ccccc2)cc1 | – | 3000 nM | 49% | 38 | 32 nM | – |
| CCN(CC)CCOc1ccc(/C(=C(/Cl)c2ccccc2)c2ccc(O)c(OC)c2)cc1 [3'-METHOXY-4'HYDROXYCLOMIPHENE] | 76% | 780 nM | – | 55 | 22 nM | 0.4 |
| CCN(CC)CCOc1ccc(C(=C(Cl)c2ccccc2)c2ccccc2)cc1 [CLOMIPHENE] | 80% | – | – | – | – | – |
